Assay: Determination of stilbene uptake (steady-state levels by GC-MS)
Format: in vivo, Caenorhabditis elegans
Details: animals treated for 2 days with 100 μM in the culture medium
Source text: The differential bioactivities of methoxylated and hydroxylated stilbenes in C. elegans adults might reflect differences in uptake or bioavailability. In general, intact C. elegans adults take up compounds relatively poorly due to their thick, impermeable cuticle. This impermeability has impeded pharmacodynamic analysis in this organism. However, steady-state levels of compounds can be measured in treated animals to provide one measure of pharmacodynamics. To assess whether differential uptake correlated with bioactivity in C. elegans, steady-state levels for pterostilbene, resveratrol-trimethylether and desoxyrhapontigenin were determined in animals treated for 2 days with 100 μM of each compound in the culture medium. […] These concentrations were within the range of serum stilbene levels detected after dietary stilbene supplementation with human volunteers (approx. 2 μM) and rabbits (42.8 μM). […]
Uptake was determined for three stilbenes (desoxyrhapontigenin, pterostilbene and resveratrol-trimethylether) by measuring the steady-state levels of each stilbene in adult fem-1(hc17) hermaphrodites treated under the same conditions as those used for survival assays. […] Derivatized sample was analyzed for stilbenes by gas chromatography-mass spectrometry (GC-MS). […] Quantitation was performed from calibration curve of authentic stilbene samples. […]

SMILES: COc1ccc(/C=C/c2cc(OC)cc(OC)c2)cc1 [Resveratrol-trimethylether, resveratrol-trimethylether]
- steady-state level relative to pterostilbene: less than one-third the level of pterostilbene
